In the NIST ThermoML archive (doi:10.1016/j.tca.2014.03.038):
Numbers after ± are expanded uncertainties.

Assays:
[1] = xn = mol fraction of the nth substance listed; settings: 101 kPa, Liquid; for mass density: Pycnometric method; for speed of sound: multifrequency ultrasonic interferometer
[2] = 101.33 kPa, Liquid; for mass density: Pycnometric method; for speed of sound: multifrequency ultrasonic interferometer

CN(C)CCO [2-(N,N-dimethylamino)ethanol] + CO
mass density ([1]; 298.15 K, x1 = 0.0971): 814.11 ± 0.26 kg/m3 | mass density ([1]; 298.15 K, x1 = 0.1983): 835.29 ± 0.27 kg/m3 | mass density ([1]; 298.15 K, x1 = 0.2962): 850.65 ± 0.28 kg/m3 | mass density ([1]; 298.15 K, x1 = 0.4039): 862.04 ± 0.3 kg/m3 | mass density ([1]; 298.15 K, x1 = 0.502): 868.4 ± 0.31 kg/m3 | mass density ([1]; 298.15 K, x1 = 0.607): 873.13 ± 0.33 kg/m3 | mass density ([1]; 298.15 K, x1 = 0.7075): 876.61 ± 0.34 kg/m3 | mass density ([1]; 298.15 K, x1 = 0.7999): 879.06 ± 0.36 kg/m3 | mass density ([1]; 298.15 K, x1 = 0.9015): 881.19 ± 0.38 kg/m3 | mass density ([1]; 298.15 K, x1 = 1): 883.34 ± 0.4 kg/m3 | speed of sound ([1]; 298.15 K, x1 = 0.0971): 1152.4 ± 0.5 m/s | speed of sound ([1]; 298.15 K, x1 = 0.1983): 1204.7 ± 0.5 m/s | speed of sound ([1]; 298.15 K, x1 = 0.2962): 1249.8 ± 0.6 m/s | speed of sound ([1]; 298.15 K, x1 = 0.4039): 1290.2 ± 0.6 m/s | speed of sound ([1]; 298.15 K, x1 = 0.502): 1312 ± 0.6 m/s | speed of sound ([1]; 298.15 K, x1 = 0.607): 1322.4 ± 0.7 m/s | speed of sound ([1]; 298.15 K, x1 = 0.7075): 1326.9 ± 0.7 m/s | speed of sound ([1]; 298.15 K, x1 = 0.7999): 1330.6 ± 0.8 m/s | speed of sound ([1]; 298.15 K, x1 = 0.9015): 1335 ± 0.8 m/s | speed of sound ([1]; 298.15 K, x1 = 1): 1344.4 ± 0.9 m/s | mass density ([1]; 308.15 K, x1 = 0.0971): 806.11 ± 0.28 kg/m3 | mass density ([1]; 308.15 K, x1 = 0.1983): 827.54 ± 0.3 kg/m3 | mass density ([1]; 308.15 K, x1 = 0.2962): 842.65 ± 0.31 kg/m3 | mass density ([1]; 308.15 K, x1 = 0.4039): 853.81 ± 0.32 kg/m3 | mass density ([1]; 308.15 K, x1 = 0.502): 860.4 ± 0.34 kg/m3 | mass density ([1]; 308.15 K, x1 = 0.607): 865.13 ± 0.35 kg/m3 | mass density ([1]; 308.15 K, x1 = 0.7075): 868.67 ± 0.37 kg/m3 | mass density ([1]; 308.15 K, x1 = 0.7999): 871.15 ± 0.38 kg/m3 | mass density ([1]; 308.15 K, x1 = 0.9015): 873.28 ± 0.4 kg/m3 | mass density ([1]; 308.15 K, x1 = 1): 874.99 ± 0.42 kg/m3 | speed of sound ([1]; 308.15 K, x1 = 0.0971): 1126.7 ± 0.5 m/s | speed of sound ([1]; 308.15 K, x1 = 0.1983): 1180.5 ± 0.5 m/s | speed of sound ([1]; 308.15 K, x1 = 0.2962): 1225.3 ± 0.6 m/s | speed of sound ([1]; 308.15 K, x1 = 0.4039): 1265.5 ± 0.6 m/s | speed of sound ([1]; 308.15 K, x1 = 0.502): 1288.1 ± 0.6 m/s | speed of sound ([1]; 308.15 K, x1 = 0.607): 1299.3 ± 0.7 m/s | speed of sound ([1]; 308.15 K, x1 = 0.7075): 1301.3 ± 0.7 m/s | speed of sound ([1]; 308.15 K, x1 = 0.7999): 1303.1 ± 0.8 m/s | speed of sound ([1]; 308.15 K, x1 = 0.9015): 1304.2 ± 0.8 m/s | speed of sound ([1]; 308.15 K, x1 = 1): 1309.1 ± 0.9 m/s | mass density ([1]; 318.15 K, x1 = 0.0971): 797.9 ± 0.31 kg/m3 | mass density ([1]; 318.15 K, x1 = 0.1983): 819.51 ± 0.32 kg/m3 | mass density ([1]; 318.15 K, x1 = 0.2962): 834.22 ± 0.34 kg/m3 | mass density ([1]; 318.15 K, x1 = 0.4039): 845.26 ± 0.35 kg/m3 | mass density ([1]; 318.15 K, x1 = 0.502): 852.01 ± 0.36 kg/m3 | mass density ([1]; 318.15 K, x1 = 0.607): 856.89 ± 0.38 kg/m3 | mass density ([1]; 318.15 K, x1 = 0.7075): 860.58 ± 0.39 kg/m3 | mass density ([1]; 318.15 K, x1 = 0.7999): 862.98 ± 0.41 kg/m3 | mass density ([1]; 318.15 K, x1 = 0.9015): 865.23 ± 0.43 kg/m3 | mass density ([1]; 318.15 K, x1 = 1): 866.37 ± 0.44 kg/m3 | speed of sound ([1]; 318.15 K, x1 = 0.0971): 1101.6 ± 0.5 m/s | speed of sound ([1]; 318.15 K, x1 = 0.1983): 1156.2 ± 0.5 m/s | speed of sound ([1]; 318.15 K, x1 = 0.2962): 1199.5 ± 0.6 m/s | speed of sound ([1]; 318.15 K, x1 = 0.4039): 1238.9 ± 0.6 m/s | speed of sound ([1]; 318.15 K, x1 = 0.502): 1261.3 ± 0.6 m/s | speed of sound ([1]; 318.15 K, x1 = 0.607): 1272.9 ± 0.7 m/s | speed of sound ([1]; 318.15 K, x1 = 0.7075): 1273.6 ± 0.7 m/s | speed of sound ([1]; 318.15 K, x1 = 0.7999): 1273.9 ± 0.8 m/s | speed of sound ([1]; 318.15 K, x1 = 0.9015): 1274 ± 0.8 m/s | speed of sound ([1]; 318.15 K, x1 = 1): 1274.1 ± 0.9 m/s

CCO [ethanol]
mass density ([2]; 298.15 K): 785.48 ± 0.23 kg/m3 | speed of sound ([2]; 298.15 K): 1143.2 ± 0.1 m/s | mass density ([2]; 308.15 K): 776.82 ± 0.26 kg/m3 | speed of sound ([2]; 308.15 K): 1109.6 ± 0.1 m/s | mass density ([2]; 318.15 K): 768.08 ± 0.29 kg/m3 | speed of sound ([2]; 318.15 K): 1075.5 ± 0.1 m/s

CCO [ethanol] + CN(C)CCO
mass density ([1]; 298.15 K, x2 = 0): 785.48 ± 0.23 kg/m3 | speed of sound ([1]; 298.15 K, x2 = 0): 1143.2 ± 0.4 m/s | mass density ([1]; 308.15 K, x2 = 0): 776.82 ± 0.26 kg/m3 | speed of sound ([1]; 308.15 K, x2 = 0): 1109.6 ± 0.4 m/s | mass density ([1]; 318.15 K, x2 = 0): 768.08 ± 0.29 kg/m3 | speed of sound ([1]; 318.15 K, x2 = 0): 1075.5 ± 0.4 m/s

CO [methanol]
mass density ([2]; 298.15 K): 786.74 ± 0.24 kg/m3 | speed of sound ([2]; 298.15 K): 1100.7 ± 0.2 m/s | mass density ([2]; 308.15 K): 777.45 ± 0.26 kg/m3 | speed of sound ([2]; 308.15 K): 1068.2 ± 0.2 m/s | mass density ([2]; 318.15 K): 768.01 ± 0.29 kg/m3 | speed of sound ([2]; 318.15 K): 1037 ± 0.2 m/s

CO [methanol] + CN(C)CCO
mass density ([1]; 298.15 K, x2 = 0): 786.74 ± 0.24 kg/m3 | speed of sound ([1]; 298.15 K, x2 = 0): 1100.7 ± 0.5 m/s | mass density ([1]; 308.15 K, x2 = 0): 777.45 ± 0.26 kg/m3 | speed of sound ([1]; 308.15 K, x2 = 0): 1068.2 ± 0.5 m/s | mass density ([1]; 318.15 K, x2 = 0): 768.01 ± 0.29 kg/m3 | speed of sound ([1]; 318.15 K, x2 = 0): 1037 ± 0.5 m/s
